Test results published in ChEMBL document CHEMBL1201862, “PubChem BioAssay data set” (2004).
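Method: 48-hour compound exposure of cells in 96-well plates, five concentrations, linear interpolation of endpoints. GI50 is the concentration that inhibits growth by half.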 Calls of active or inactive are those of the source. Cut-off read from the data, not from the text of the source: active = GI50 up to about 1.1 µM and inactive = higher.

Legend:
Test in all cases: inhibition of tumour cell growth, NCI panel, 48 h
[1] = system: K562
[2] = system: DU-145
[3] = system: UACC-257
[4] = system: RPMI-8226
[5] = system: 786-0
[6] = system: NCI-H522
[7] = system: HCT-15
[8] = system: T47D
[9] = system: HOP-92
[10] = system: SNB-19
[11] = system: HCT-116
[12] = system: MDA-N
[13] = system: PC-3
[14] = system: SF-295
[15] = system: MCF7
[16] = system: SK-OV-3
[17] = system: OVCAR-8
[18] = system: HL-60
[19] = system: M14
[20] = system: OVCAR-5

| SMILES | GI50 [1] | GI50 [2] | GI50 [3] | GI50 [4] | GI50 [5] | GI50 [6] | GI50 [7] | GI50 [8] | GI50 [9] | GI50 [10] | GI50 [11] | GI50 [12] | GI50 [13] | GI50 [14] | GI50 [15] | GI50 [16] | GI50 [17] | GI50 [18] | GI50 [19] | GI50 [20] |
| --- | --- | --- | --- | --- | --- | --- | --- | --- | --- | --- | --- | --- | --- | --- | --- | --- | --- | --- | --- | --- |
| OC1CC2CCCN(CCc3c1[nH]c1ccccc31)C2 (configuration not stated) | > 100 µM (inactive) | > 100 µM (inactive) | 67.6 µM (inactive) | > 100 µM (inactive) | > 100 µM (inactive) | > 100 µM (inactive) | > 100 µM | > 100 µM (inactive) | > 100 µM (inactive) | > 100 µM (inactive) | > 100 µM (inactive) | > 100 µM (inactive) | > 100 µM (inactive) | > 100 µM (inactive) | > 100 µM (inactive) | > 100 µM (inactive) | > 100 µM (inactive) | > 100 µM (inactive) | – | – |
| Cn1c2c(c3ccccc31)CCN1C(=O)CCC21 (configuration not stated) | > 10 µM (inactive) | > 10 µM (inactive) | > 10 µM (inactive) | > 10 µM (inactive) | > 10 µM (inactive) | > 10 µM (inactive) | > 10 µM | > 10 µM (inactive) | > 10 µM (inactive) | > 10 µM (inactive) | – | > 10 µM (inactive) | > 10 µM (inactive) | > 10 µM (inactive) | > 10 µM (inactive) | > 10 µM (inactive) | > 10 µM (inactive) | > 10 µM (inactive) | > 10 µM (inactive) | > 10 µM (inactive) |
| CCC[C@H](C)[C@H]1NC(=O)[C@@H](NC(=O)[C@@H](CC(C)C)N(C)C(=O)C2CCCN2C(=O)[C@H](C)O)[C@@H](C)OC(=O)[C@H](CC(C)C)N(C)C(=O)[C@@H]2CCCN2C(=O)[C@H](CC(C)C)NC(=O)[C@@H](C)C(=O)[C@H](C(C)C)OC(=O)C[C@@H]1O (some centres not stated) | < 0.0025 µM (active) | < 0.0025 µM (active) | < 0.0025 µM (active) | < 0.0025 µM (active) | < 0.0025 µM (active) | < 0.0025 µM (active) | 0.0328 µM | < 0.0025 µM (active) | < 0.0025 µM (active) | < 0.0025 µM (active) | < 0.0025 µM (active) | < 0.0025 µM (active) | < 0.0025 µM (active) | < 0.0025 µM (active) | < 0.0025 µM (active) | < 0.0025 µM (active) | < 0.0025 µM (active) | < 0.0025 µM (active) | < 0.0025 µM (active) | < 0.0025 µM (active) |
| CC(=O)N1N=C(c2ccc3ccccc3c2O)CC1c1ccc(N(C)C)cc1 (configuration not stated) | > 100 µM (inactive) | > 100 µM (inactive) | > 100 µM (inactive) | > 100 µM (inactive) | > 100 µM (inactive) | > 100 µM (inactive) | > 100 µM | > 100 µM (inactive) | > 100 µM (inactive) | – | > 100 µM (inactive) | > 100 µM (inactive) | > 100 µM (inactive) | > 100 µM (inactive) | > 100 µM (inactive) | > 100 µM (inactive) | > 100 µM (inactive) | – | > 100 µM (inactive) | > 100 µM (inactive) |
| Brc1cccc(/C=C/CN2CCN(CCOC(c3ccccc3)c3ccccc3)CC2)c1 | 7.69 µM (inactive) | 13.6 µM (inactive) | 17.9 µM (inactive) | 4.08 µM (inactive) | 15.7 µM (inactive) | 14.4 µM (inactive) | 15.6 µM | 3.73 µM (inactive) | 6 µM (inactive) | 16.7 µM (inactive) | 13.7 µM (inactive) | 16.7 µM (inactive) | 13.2 µM (inactive) | 17.6 µM (inactive) | 14.5 µM (inactive) | 17.6 µM (inactive) | 16.1 µM (inactive) | 7.45 µM (inactive) | 13.2 µM (inactive) | 16.2 µM (inactive) |
| CN(C)CCn1c(=O)c2ccc(NCCCN(C)CCCNc3ccc4c(=O)n(CCN(C)C)c(=O)n5c6ccc(O)cc6c(=O)c3c45)c3c(=O)c4cc(O)ccc4n(c1=O)c23 | < 0.01 µM (active) | < 0.01 µM (active) | 0.181 µM (active) | < 0.01 µM (active) | < 0.01 µM (active) | < 0.01 µM (active) | < 0.0173 µM | 0.0624 µM (active) | < 0.0201 µM (active) | < 0.01 µM (active) | < 0.01 µM (active) | < 0.0337 µM (active) | < 0.01 µM (active) | < 0.01 µM (active) | < 0.01 µM (active) | – | < 0.01 µM (active) | 0.0342 µM (active) | 0.147 µM (active) | 0.0442 µM (active) |
| CS(=O)(=O)OCCCSCCSCCCOS(C)(=O)=O | > 100 µM (inactive) | > 100 µM (inactive) | > 100 µM (inactive) | – | > 100 µM (inactive) | > 100 µM (inactive) | > 100 µM | > 100 µM (inactive) | 40.2 µM (inactive) | > 100 µM (inactive) | > 100 µM (inactive) | > 100 µM (inactive) | > 100 µM (inactive) | > 100 µM (inactive) | > 100 µM (inactive) | > 100 µM (inactive) | > 100 µM (inactive) | > 100 µM (inactive) | > 100 µM (inactive) | > 100 µM (inactive) |
| CCSc1s/c(=N/c2ccc(/N=c3\sc(C)c(SC)s3)cc2)sc1-c1ccc(C)cc1 | > 100 µM (inactive) | > 100 µM (inactive) | > 100 µM (inactive) | > 100 µM (inactive) | > 100 µM (inactive) | > 100 µM (inactive) | > 100 µM | > 100 µM (inactive) | > 100 µM (inactive) | > 100 µM (inactive) | > 100 µM (inactive) | > 100 µM (inactive) | > 100 µM (inactive) | > 100 µM (inactive) | > 100 µM (inactive) | > 100 µM (inactive) | > 100 µM (inactive) | > 100 µM (inactive) | > 100 µM (inactive) | > 100 µM (inactive) |
| COC(=O)c1c(C)cccc1C1CN=NC12Cc1cc(C)c(C)cc1C2=O (configuration not stated) | 25.4 µM (inactive) | > 100 µM (inactive) | 27.2 µM (inactive) | – | 62.4 µM (inactive) | 19.2 µM (inactive) | 30.5 µM | 40.6 µM (inactive) | 30.4 µM (inactive) | 44.5 µM (inactive) | 34.8 µM (inactive) | 25.6 µM (inactive) | 34.7 µM (inactive) | 48.5 µM (inactive) | 33.6 µM (inactive) | 55.2 µM (inactive) | 78.7 µM (inactive) | 17.5 µM (inactive) | 40.6 µM (inactive) | > 100 µM (inactive) |
| Nc1ccc(C(=O)O)cc1 [AMINOBENZOIC ACID] | > 100 µM (inactive) | > 100 µM (inactive) | > 100 µM (inactive) | > 100 µM (inactive) | > 100 µM (inactive) | > 100 µM (inactive) | 21.1 µM | > 100 µM (inactive) | > 100 µM (inactive) | > 100 µM (inactive) | > 100 µM (inactive) | > 100 µM (inactive) | > 100 µM (inactive) | > 100 µM (inactive) | > 100 µM (inactive) | – | > 100 µM (inactive) | > 100 µM (inactive) | > 100 µM (inactive) | > 100 µM (inactive) |
| Cc1ccc2c(c1C)CC1(Cc3ccc(C)c(C)c3C1=O)C2=O (configuration not stated) | > 100 µM (inactive) | > 100 µM (inactive) | > 100 µM (inactive) | > 100 µM (inactive) | 39.4 µM (inactive) | > 100 µM (inactive) | > 100 µM | > 100 µM (inactive) | 34 µM (inactive) | 59.6 µM (inactive) | > 100 µM (inactive) | > 100 µM (inactive) | > 100 µM (inactive) | 30.3 µM (inactive) | 66.8 µM (inactive) | – | 61.5 µM (inactive) | 94.6 µM (inactive) | > 100 µM (inactive) | > 100 µM (inactive) |
| Cc1cc(=O)n2nc(SCc3ccccc3)sc2n1 | 18.2 µM (inactive) | > 100 µM (inactive) | – | > 100 µM (inactive) | > 100 µM (inactive) | > 100 µM (inactive) | > 100 µM | 42.3 µM (inactive) | 94.8 µM (inactive) | > 100 µM (inactive) | > 100 µM (inactive) | > 100 µM (inactive) | > 100 µM (inactive) | > 100 µM (inactive) | > 100 µM (inactive) | > 100 µM (inactive) | > 100 µM (inactive) | > 100 µM (inactive) | > 100 µM (inactive) | > 100 µM (inactive) |
| CC#CC#C/C=C1/C=CC2(CCCCO2)O1 (configuration not stated) | 40.2 µM (inactive) | > 100 µM (inactive) | > 100 µM (inactive) | – | > 100 µM (inactive) | 40.1 µM (inactive) | 56.8 µM | > 100 µM (inactive) | > 100 µM (inactive) | 40.6 µM (inactive) | > 100 µM (inactive) | > 100 µM (inactive) | > 100 µM (inactive) | > 100 µM (inactive) | 94.4 µM (inactive) | > 100 µM (inactive) | > 100 µM (inactive) | 19.5 µM (inactive) | > 100 µM (inactive) | > 100 µM (inactive) |
| C=CC[C@H](C)CCC(=O)N1[C@H]2CC3CC[C@@]2(CS1(=O)=O)C3(C)C | – | > 100 µM (inactive) | 66.1 µM (inactive) | 39.9 µM (inactive) | 50.6 µM (inactive) | 30.3 µM (inactive) | 25.5 µM | 42.6 µM (inactive) | > 100 µM (inactive) | 87.9 µM (inactive) | 48 µM (inactive) | 79.8 µM (inactive) | 40.3 µM (inactive) | 45.2 µM (inactive) | 33.9 µM (inactive) | > 100 µM (inactive) | 45.4 µM (inactive) | 25.1 µM (inactive) | 35.6 µM (inactive) | > 100 µM (inactive) |
